# Measured values as given in PMC5615911 (Toxicology Reports, 2016).
# “Also recorded” adds a separate entry of the source.
# How the values were obtained:
# [1] = test system: Primary human lymphocytes; test: In vitro chromosome aberration test
# CYP1A2 = target: T1, CYP1A2 (Homo sapiens, UniProt P05177); test: CYP inhibition, LC–MS/MS assay in human liver microsomes
# T1 sequence (P05177 1-516): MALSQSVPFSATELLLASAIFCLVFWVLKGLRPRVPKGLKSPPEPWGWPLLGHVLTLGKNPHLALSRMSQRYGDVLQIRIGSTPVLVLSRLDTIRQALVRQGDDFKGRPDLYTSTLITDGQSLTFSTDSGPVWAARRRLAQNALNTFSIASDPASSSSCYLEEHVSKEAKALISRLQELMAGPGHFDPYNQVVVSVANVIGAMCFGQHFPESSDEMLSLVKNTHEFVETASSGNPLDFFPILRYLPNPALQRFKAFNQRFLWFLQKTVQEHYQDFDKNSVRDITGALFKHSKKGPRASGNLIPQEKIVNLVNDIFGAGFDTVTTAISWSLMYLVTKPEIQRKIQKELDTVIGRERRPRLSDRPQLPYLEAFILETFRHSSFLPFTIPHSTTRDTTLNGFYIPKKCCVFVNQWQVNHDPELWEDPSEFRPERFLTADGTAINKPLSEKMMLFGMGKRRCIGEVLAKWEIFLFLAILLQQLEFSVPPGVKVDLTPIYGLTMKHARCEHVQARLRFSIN
# CYP2C9 = CYP2C9 (Homo sapiens, UniProt P11712); test: as above; settings: probe tolbutamide
# Sequence of CYP2C9 (P11712 whole entry): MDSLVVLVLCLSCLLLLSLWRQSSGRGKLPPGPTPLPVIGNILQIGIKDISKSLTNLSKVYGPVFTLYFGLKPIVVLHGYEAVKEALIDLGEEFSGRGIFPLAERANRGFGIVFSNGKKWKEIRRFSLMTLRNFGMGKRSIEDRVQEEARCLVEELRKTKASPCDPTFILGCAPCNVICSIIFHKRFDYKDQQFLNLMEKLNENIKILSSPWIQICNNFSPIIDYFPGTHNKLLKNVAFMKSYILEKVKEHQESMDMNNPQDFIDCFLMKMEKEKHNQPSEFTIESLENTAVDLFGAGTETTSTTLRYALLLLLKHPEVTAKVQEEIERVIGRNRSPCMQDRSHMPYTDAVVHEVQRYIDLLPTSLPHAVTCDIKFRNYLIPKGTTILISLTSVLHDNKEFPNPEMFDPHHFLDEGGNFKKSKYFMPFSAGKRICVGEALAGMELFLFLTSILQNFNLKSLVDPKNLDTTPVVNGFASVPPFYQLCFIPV
# CYP2D6 = CYP2D6 (Homo sapiens, UniProt P10635); test: as above; settings: probe bufuralol
# Sequence of CYP2D6 (P10635 whole entry): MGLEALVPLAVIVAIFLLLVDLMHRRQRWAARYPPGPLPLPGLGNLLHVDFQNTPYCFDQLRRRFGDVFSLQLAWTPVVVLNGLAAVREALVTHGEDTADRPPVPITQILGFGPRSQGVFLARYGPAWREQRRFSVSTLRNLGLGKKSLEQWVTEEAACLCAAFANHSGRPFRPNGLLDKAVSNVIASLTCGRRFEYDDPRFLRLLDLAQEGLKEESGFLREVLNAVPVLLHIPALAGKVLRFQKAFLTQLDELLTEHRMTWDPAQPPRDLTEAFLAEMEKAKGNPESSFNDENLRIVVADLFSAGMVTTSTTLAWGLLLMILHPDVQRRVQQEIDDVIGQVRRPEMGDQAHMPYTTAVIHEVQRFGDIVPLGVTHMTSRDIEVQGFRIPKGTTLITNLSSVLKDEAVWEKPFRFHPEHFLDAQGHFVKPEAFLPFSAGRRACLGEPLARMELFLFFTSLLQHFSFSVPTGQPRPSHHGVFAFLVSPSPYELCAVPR
# [2] = test system: GPCRs, ion channels, nuclear receptors, transporters; test: Receptor lead profiling panel; settings: 10 μM
smiles,measurement,setting,value
"COc1cccc(-c2n[nH]c(SCc3ccccn3)n2)c1OC [S3643, 2-(((3-(2,3-dimethoxyphenyl)-1H-1,2,4-triazol-5-yl)thio)methyl)pyridine]","Chromosome aberration (in vitro), result","[1]; 63–250 μg/mL, 3 h exposure, +S9",Negative
same,"Chromosome aberration (in vitro), result","[1]; 63–250 μg/mL, 20 h exposure, −S9",Negative
same,"Chromosome aberration (in vitro), result","[1]; 130–500 μg/mL, 3 h exposure, −S9",Negative
same,"Induction of structural and numerical chromosome aberrations, conclusion",[1]; non-activated and S9-activated,negative
same,IC50,CYP1A2,> 10 µM
same,inhibition at 10 µM,"CYP1A2; human, human liver microsomes, probe phenacetin",43%
same,inhibition at 10 µM,CYP2C9,8%
same,inhibition at 10 µM,CYP2D6,22%
same,Significant responses (≥50% inhibition or stimulation),[2],No significant responses; also recorded: No other significant off-target activities
